Assay results reported in US10624968B2, “Compounds for treating cancer” (Bicycle Therapeutics Limited, priority 2017, dated 2020).
Like-named read-outs stand apart in the source and are kept apart here. Starred links: 1 amine or outer side, 2 acyl side, 3 side chain; linkers in the order of their positions; H or OH if unused. Positions of bridges follow the written chain, without caps; N, C: chain ends. Non-standard residues stand in square brackets, D forms with d. Residues, ends and D or L forms follow the SMILES beside them. ξ: configuration not given here. *: point of attachment. X4 = COc1cc2cc(c1Cl)N(C)C(=O)C[C@H](OC(=O)[C@H](C)N(C)C(=O)CCN(C)*)[C@]1(C)O[C@H]1[C@H](C)[C@@H]1C[C@@](O)(NC(=O)O1)[C@H](OC)/C=C/C=C(\C)C2; Dolaproine = CO[C@@H]([C@@H]1CCCN1)[C@@H](C)C(=O)O; Dil = CC[C@H](C)[C@H](NC)[C@@H](CC(=O)O)OC; TBMB = c1c(C[*:1])cc(C[*:3])cc1C[*:2]; PABC = O=C(OCc1ccc(N[*:1])cc1)[*:2]; Glutaryl = O=C(CCCC(=O)[*:2])[*:1]; X1 = C[C@@H](N*)[C@@H](O)c1ccccc1; ξ1Nal = NC(Cc1cccc2ccccc12)C(=O)O; Cit = NC(=O)NCCC[C@H](N)C(=O)O; NMeV = CN[C@H](C(=O)O)C(C)C; ξY = NC(Cc1ccc(O)cc1)C(=O)O; ξTle = CC(C)(C)C(N)C(=O)O; ξF = NC(Cc1ccccc1)C(=O)O; ξE = NC(CCC(=O)O)C(=O)O; ξD = NC(CC(=O)O)C(=O)O; ξN = NC(=O)CC(N)C(=O)O; ξC = NC(CS)C(=O)O; βAla = NCCC(=O)O; ξA = CC(N)C(=O)O; Sar = CNCC(=O)O

Key:
[1] = Mortality, morbidity and body weight in HT1080 xenograft study (Example 13); type: in vivo, mouse
Protocol: All the procedures related to animal handling, care and the treatment in the study were performed following the guidance of the Association for Assessment and Accreditation of Laboratory Animal Care (AAALAC). At the time of routine monitoring, the animals were daily checked for any effects of tumor growth and treatments on normal behavior such as mobility, food and water consumption (by looking only), body weight gain/loss (body weights were measured every day), eye/hair matting and any other abnormal effect as stated in the protocol. Death and observed clinical signs were recorded on the basis of the numbers of animals within each subset.
Body weight was monitored regularly as an indirect measure of toxicity.

[2] = tested on: EBC-1; experiment: cells; details: EBC-1, 72 hours
Text: (§1) Details of the initial cell plating procedure are described in Table 3.
(§2) Data Details for Tables 5 and 6. Inhibition %=(Max−Sample value)/(Max−Min)*100.
(§3) The IC50 curves were generated by 4 Parameter Logistic Model—Sigmoidal Dose-Response Model as follows: Y=Bottom+(Top−Bottom)/(1+10^((log EC50-X)*HillSlope)).

[3] = tested on: HCC1806; experiment: cells; details: HCC1806, 72 hours
Text: as §1, §2, §3

[4] = tested on: HCT15; experiment: cells; details: HCT15, 72 hours
Text: as §1, §2, §3

[5] = tested on: HT1080; experiment: cells; details: HT1080, 72 hours
Text: as §1, §2, §3

[6] = tested on: HT29; experiment: cells; details: HT29, 72 hours
Text: as §1, §2, §3

[7] = tested on: MDA-MB-231; experiment: cells; details: MDA-MB-231, 72 hours
Text: as §1, §2, §3

[8] = tested on: MOLP-8; experiment: cells; details: MOLP-8, 72 hours
Text: as §1, §2, §3

[9] = tested on: NCI-H1975; experiment: cells; details: NCI-H1975, 72 hours
Text: as §1, §2, §3

[10] = tested on: NCI-H292; experiment: cells; details: NCI-H292, 72 hours
Text: as §1, §2, §3

[11] = tested on: PC-3; experiment: cells; details: PC-3, 72 hours
Text: as §1, §2, §3

[12] = tested on: SNU-16; experiment: cells; details: SNU-16, 72 hours
Text: as §1, §2, §3

[13] = tested on: HT1080 cells; experiment: Cytotoxicity in HT1080 cells in presence and absence of 1 mM bacitracin (ATPlite, 24 hour exposure)
Protocol: HT1080 cells (ATCC, via LGC, BIC918) Maintained in EMEM media (Sigma M2279)+10% FBS (Sigma Code F7524)+4 mM L-Glu (Invitrogen Cat 25030-024)
I-1a and Toxins with Bacitracin—24 or 72 Hour Exposure in 96 Well Plates
DB seeded cells in normal media, 75 μL in 96 well clear plates, ˜24 hours previous.
HT1080—7.5 k cells/well: 50% confluent upon dosing.
Dilute in media 1:42.85=5 μL DMSO dilute+209 μL media=>use 15 μL per well
This gives a 5 μM top concentration for BDCs in assay
Add 10 µL of media±bacitracin (2 plates of each)−leave for 1 hr
(§4) Bacitracin=1 mM final concentration. This requires a 10 mM concentration with no DMSO.
Add 15 μL treatment per well as in Table 19, below.
Seal plates with gas permeable membrane and incubate at 37° C.
Washout HT1080 plates with 2×150 μL PBS at 24 h and add 100 μL fresh media
At t=72 h, equilibrate ATPlite reagent to room temperature. Add 10 ml buffer to each vial of lyophilized substrate. Add 100 μL reagent per well. Seal with PCR seal and cover to protect from light. Shake for 20 mins before reading luminescence

[14] = tested on: L540 cells; experiment: Cytotoxicity in L540 cells in presence and absence of 1 mM bacitracin (ATPlite, 72 hour exposure); type: cell-based
Protocol: L540 cells (DSMZ # ACC72, BIC5121), maintained in RPMI-1640 medium (Sigma # R8758)+20% heat-inactivated serum
L540—20 k cells/well: 40% confluent upon dosing.
as §4
Add 100 μL reagent per well. […] Shake for 20 mins before reading luminescence

[15] = tested on: HT1080 cells; experiment: HT1080 cytotoxicity (ATPLite) in presence or absence of excess binding or non-binding peptide; type: cell-based; details: for IC50: mean ± standard deviation
Protocol: The target dependence of cytotoxicity of I-1a in cell lines expressing or lacking MT1-MMP was assessed by measuring ATP levels in an endpoint assay after 24 hours exposure to toxin, in the presence or absence of an excess of binding peptide or non-binding control peptide.
HT1080 cells were seeded in 96 well plates (75 μL/well) and incubated overnight at 37° C.+5% CO2. The next day, peptides were prepared in buffer from a DMSO stock. 10 μL of buffer or peptide was added to the cells and incubated for 1 hour. Toxins were diluted in cell culture media and 15 μL/well was added to the cells (<0.5% final DMSO). Cells were approximately 30-50% confluent upon dosing. Plates were sealed with gas permeable seals and incubated for 24 hours at 37° C.+5% CO2. After 24 hours, media was removed, cells were washed with PBS and 100 μL fresh media was added per well. Cells were incubated for a further 48 hours at 37° C.+5% CO2.
ATPLite reagent (Perkin Elmer) was equilibrated to room temperate and reconstituted in buffer as per the manufacturer's instructions. 100 μL reagent was added per well. Plates were sealed and shaken gently for 20 minutes to ensure complete cell lysis before luminescence was read using a BMG Pherastar. […] Data was analyzed using GraphPad Prism. Non-linear regression fit was used to calculate an IC50 for each toxic agent: Y=Bottom+(Top−Bottom)/(1+10^((Log IC50-X)*HillSlope)).

With `COc1cc2cc(c1Cl)N(C)C(=O)C[C@H](OC(=O)[C@H](C)N(C)C(=O)CCN(C)C(=O)OCc1ccc(NC(=O)[C@H](CCCNC(N)=O)NC(=O)[C@@H](NC(=O)CCCC(=O)NCCC(=O)N(C)CC(=O)N(C)CC(=O)N(C)CC(=O)N(C)CC(=O)N(C)CC(=O)N(C)CC(=O)N(C)CC(=O)N(C)CC(=O)N(C)CC(=O)N(C)CC(=O)NC(C)C(=O)NC3CSCc4cc5cc(c4)CSCC(NC(=O)C(C)NC(=O)C(Cc4cccc6ccccc46)NC(=O)C(CCC(=O)O)NC(=O)C(CC(N)=O)NC(=O)C(C)NC3=O)C(=O)NC(C)C(=O)NC(CC(=O)O)C(=O)NC(Cc3ccccc3)C(=O)NC(Cc3ccc(O)cc3)C(=O)NC(CC(=O)O)C(=O)NC(C(C)(C)C)C(=O)NC(C(N)=O)CSC5)C(C)C)cc1)[C@]1(C)O[C@H]1[C@H](C)[C@@H]1C[C@@](O)(NC(=O)O1)[C@H](OC)/C=C/C=C(\C)C2` (stereo partly drawn) [Compound I-8] ({X4-PABC-Cit-Val-Glutaryl-βAla}-[Sar][Sar][Sar][Sar][Sar][Sar][Sar][Sar][Sar][Sar][ξA][ξC][ξA][ξN][ξE][ξ1Nal][ξA][ξC][ξA][ξD][ξF][ξY][ξD][ξTle][ξC]-NH2; linker 12-18-25 via TBMB) the “mouse with severe tumor ulceration” value ([1]; 1 mg/kg biw) was 1/3 and the “mouse died at day 14” value ([1]; 3 mg/kg biw) was 1/3.
`CC[C@H](C)[C@@H]([C@@H](CC(=O)N1CCC[C@H]1[C@H](OC)[C@@H](C)C(=O)N[C@H](C)[C@@H](O)c1ccccc1)OC)N(C)C(=O)[C@@H](NC(=O)[C@@H](NC)C(C)C)C(C)C` [MMAE, monomethyl auristatin E] (H-[NMeV]V[Dil][Dolaproine]-X1) gave a Top inhibition% [2] of 67%, an IC50 ([2]; read-out: Re IC50) of 0.35 nM and a Top inhibition% [3] of 91%. The IC50 ([3]; read-out: Re IC50) was 0.26 nM, the Top inhibition% [4] was 100% and the IC50 ([4]; read-out: Re IC50) was 21.4 nM. The Top inhibition% [5] was 97%, the IC50 ([5]; read-out: Re IC50) was 0.68 nM and the Top inhibition% [6] was 81%. The IC50 ([6]; read-out: Re IC50) was 0.42 nM, the Top inhibition% [7] was 61% and the IC50 ([7]; read-out: Re IC50) was 0.62 nM. The Top inhibition% [8] was 93%, the IC50 ([8]; read-out: Re IC50) was 0.65 nM and the Top inhibition% [9] was 65%. The IC50 ([9]; read-out: Re IC50) was 0.38 nM, the Top inhibition% [10] was 86% and the IC50 ([10]; read-out: Re IC50) was 0.34 nM. For the same compound, the Top inhibition% [11] was 58%, the IC50 ([11]; read-out: Re IC50) was 0.85 nM and the Top inhibition% [12] was 99%. For the same compound, the IC50 ([12]; read-out: Re IC50) was 0.18 nM, the IC50 ([13]; read-out: IC50 with 1 mM bacitracin, 24 hour exposure, + 1 mM bacitracin (PDI inhibitor)) was 0.15 nM and the IC50 ([13]; read-out: Standard IC50, 24 hour exposure (high MT1 expression), no block) was 0.083 nM. The IC50 ([14]; 72 hour exposure (low/no MT1 expression), no block, read-out: Standard IC50) was 0.49 nM, the IC50 ([14]; read-out: IC50 with 1 mM bacitracin, 72 hour exposure, + 1 mM bacitracin) was 0.28 nM and the IC50 ([15]; 24 hours exposure, No block, 3 repeats) was 0.06 nM. It also gave a Maximum kill ([15]; +250 μM binding peptide) of 95%, an IC50 ([15]; +250 μM binding peptide) of 0.05 nM and a Maximum kill ([15]; +250 μM non-binding peptide) of 95%. It also gave an IC50 ([15]; +250 μM non-binding peptide) of 0.05 nM and a Maximum kill ([15]; No block, compared to a lysis control) of 95%.
